Some results are limits rather than exact numbers.

The test deals with ATDC5 cells. In words: Chondrogenesis activity assay in ATDC5 cells (collagen type II induction, immunofluorescence). To be noted: Mus musculus; for EC50: collagen type II induction in ATDC5 cells, concentration reaching 50% of maximum induction; for Emax: maximum percent induction of collagen type II relative to internal reference compound at 10 μM, ATDC5 cells. It counts as cell-based, mouse. Here is the method: A) Chondrogenesis Activity Assay in ATDC5 Cells
The chondrogenic potential of the compounds of the invention was determined using clonal mouse chondrogenic ATDC5 cells (T. Atsumi et al., Cell Differ. Dev. 1990, 30, 109-116). ATDC5 cells are derived from mouse embryonic AT805 teratocarcinoma cells and are used frequently to study the multistep chondrogenic differentiation process from precursor cells into chondrocytes (C. Shukunami et al., Exp. Cell Res. 1998, 241, 1-11; H. Aklyami et al., J. Bone Miner. Res. 1996, 11, 22-28; H. Akiyami et al., Biochem. Biophys. Res. Commun. 1997, 235, 142-147; C. Shukunami et al., J. Cell Biol. 1996, 133, 457-468; C. Shukunami et al., J. Bone Miner. Res. 1997, 12, 1174-1188). Undifferentiated ATDC5 cells grow in vitro until confluence, showing a fibroblast-like morphology. In the presence of insulin, cells undergo transient condensation and form numerous nodular structures (cartilage nodules). The cartilagenous nature of these nodules was shown by Alcian Blue staining as evidence of the production of proteoglycan (aggrecan) and collagen type II expression (by expression analysis), both molecular markers of chondrocytes (C. Shukunami et al., J. Cell Biol. 1996, 133, 457-468).
Chondrogenic differentiation of ATDC5 cells into chondrocytes by the compounds of the invention was determined by measuring the induction of type II collagen protein as a marker of chondrocytes, a structural component of the extracellular matrix which constitutes more than 80% of cartilage mass (D. R. Eyre, Clin. Orthop. Relat. Res. 2004, 427 Suppl, S118-S122). ATDC5 cells were obtained from RIKEN and cultured as monolayer in basal culture medium (Dulbecco's Modified Eagle Medium/Nutrient Mixture F-12 (DMEM/F12, Invitrogen, #31331-093) supplemented with 10 μg/ml Transferrin (Roche, #10652 202001), 3×10E−8 M sodium seienite (Sigma, #S-5261) and 5% Fetal Calf Serum (FCS Gold, PAA, #A15-251)), at 37° C., and 5% CO2 in plastic flasks of 75 cm^2 or 300 cm^2 subconfluently for propagation. ATDC5 cells were harvested and resuspended in differentiation culture medium that consisted of basal culture medium complemented with 10 μg/ml insulin (Sigma, #19278), to initiate chondrogenic differentiation. For studying the effect of test compounds, the ATDC5 cells were plated in 96-well plates (3.0×10E4 cells per well in 200 μl of differentiation culture medium). Test compounds dissolved in DMSO were added to yield increasing compound concentrations, typically from 40 nM to 10 μM, and a final DMSO concentration of 0.1%. On each 96-well plate, control wells containing no test compound but the same concentration of DMSO, i.e. untreated cells, were included and used as reference for the determination of the effect of the test compounds on the cells, and wells containing an internal reference compound at a concentration of 10 μM were included and used as positive control and for standardizing the results. Cells in the wells were incubated for 4 days at 37° C., and 5% CO2, followed by quantification of intracellular collagen type II.
Quantification of collagen type II in the ATDC5-cells was done by immunofluorescence staining of collagen type II, and fluorescence intensity was measured using a cellular high content imaging system (ImageXpress, Molecular Device). For immunofluorescence staining of intracellular collagen, medium was removed after compound incubation and cells were fixed with 200 μl/well methanol/water (95%/5%). Cells were permeabilized in 200 μl/well phosphate-buffered saline (PBS) containing 0.2% Triton X100 for 15 min and, after removal of the solution, blocked for 30 min with 200 μl/well PBS/0.2% Triton X100 containing 1% bovine serum albumin (BSA) to avoid unspecific binding. After the blocking step, the solution was removed and collagen type II staining solution was added. […]

For `Cc1nccc2c1[nH]c1c(-c3ccc(OCCn4cc(Br)cn4)cc3)cc(Cl)cc12` [Example 42, 8-(4-[2-(4-Bromo-pyrazol-1-yl)-ethoxy]-phenyl)-6-chloro-1-methyl-9H-pyrido[3,4-b]indole], the EC50 (commonly the midpoint of the concentration-response curve) turned out to be 510 nM and the Emax (as a rule, the size of the effect at its maximum, as opposed to the concentration needed) was 50 to 80%.

With `Cc1nc(Br)cc2c1[nH]c1c(-c3ccc(OCCn4cc(Br)cn4)cc3)cc(Cl)cc12` [Example 43, 3-Bromo-8-(4-[2-(4-bromo-pyrazol-1-yl)-ethoxy]-phenyl)-6-chloro-1-methyl-9H-pyrido[3,4-b]indole], the half-maximal effective concentration (EC50) is greater than 6600 nM and the Emax was less than 20%.

In the case of `CCn1c2c(-c3cnn(CCO)c3)cc(Cl)cc2c2ccnc(C)c21` [Example 44, 2-[4-(6-Chloro-9-ethyl-1-methyl-9H-pyrido[3,4-b]indol-8-yl)-pyrazol-1-yl]-ethanol], the EC50 was found to be 670 nM and the Emax was greater than 80%.

`Cc1nccc2c3cc(Cl)cc(-c4ccc(C#N)nc4)c3n(CC3CC3)c12` [Example 47, 5-(6-Chloro-9-cyclopropylmethyl-1-methyl-9H-pyrido[3,4-b]indol-8-yl)-pyridine-2-carbonitrile]: the EC50 was greater than 10000 nM and the Emax is 20 to 50%.

`Cc1cc(-c2cc(Cl)cc3c4ccnc(C)c4n(CC4CC4)c23)cnc1C#N` [Example 48, 5-(6-Chloro-9-cyclopropylmethyl-1-methyl-9H-pyrido[3,4-b]indol-8-yl)-3-methyl-pyridine-2-carbonitrile] yielded an EC50 of 41 nM and an Emax of less than 20%.

For the molecule `Cc1nccc2c3cc(Cl)cc(-c4cnc5c(c4)OCCN5C)c3n(CC3CC3)c12` [Example 49, 6-Chloro-9-cyclopropymethyl-1-methyl-8-(4-methyl-3,4-dihydro-2H-pyrido[3,2-b][1,4]oxazin-7-yl)-9H-pyrido[3,4-b]indole], the EC50 came to 41 nM and the Emax is less than 20%.

In the case of `Cc1nccc2c3cc(Cl)cc(-c4ccc(N5CCCC5)nc4)c3n(CC3CC3)c12` [Example 50, 6-Chloro-9-cyclopropylmethyl-1-methyl-8-(6-pyrrolidin-1-ylpyridin-3-yl)-9H-pyrido[3,4-b]indole], the response was half-maximal at 130 nM (EC50) and the Emax was less than 20%.

For the molecule `Cc1nccc2c3cc(Cl)cc(-c4ccc(N5CCN(C)CC5)nc4)c3n(CC3CC3)c12` [Example 51, 6-Chloro-9-cyclopropylmethyl-1-methyl-8-[6-(4-methyl-piperazin-1-yl)-pyridin-3-yl]-pyrido[3,4-b]indole], the concentration for a half-maximal effect (EC50) is greater than 10000 nM and the maximum response (Emax) is less than 20%.

Molecule `COc1ccc(-c2cc(Cl)cc3c4ccncc4n(CC4(C)COC4)c23)cc1` [Example 52, 6-Chloro-8-(4-methoxy-phenyl)-9-(3-methyl-oxetan-3-ylmethyl)-9H-pyrido[3,4-b]indole] registered a 50% effective concentration (EC50) of 1200 nM and an Emax of 50 to 80%.

Regarding `Nc1ccc(-c2cc(Cl)cc3c4ccncc4n(CC4CC4)c23)c(Cl)n1` [Example 53, 6-Chloro-5-(6-chloro-9-cyclopropylmethyl-9H-pyrido[3,4-b]indol-8-yl)-pyridin-2-ylamine], the EC50 amounted to 2100 nM and the Emax fell in the range of 50 to 80%.

Take `CCn1c2cnccc2c2cc(Cl)cc(-c3ccc(Cl)nc3)c21` [Example 54, 6-Chloro-8-(6-chloro-pyridin-3-yl)-9-ethyl-9H-pyrido[3,4-b]indole]: a half-maximal response (EC50) required 1100 nM and the Emax lay in the range of 20 to 50%.

In turn, `CCn1c2cnccc2c2cc(Cl)cc(-c3cccnc3Cl)c21` [Example 56, 6-Chloro-8-(2-chloro-pyridin-3-yl)-9-ethyl-9H-pyrido[3,4-b]indole] showed an EC50 of 460 nM and an Emax of 20 to 50%.

`FC(F)(F)Cn1c2cnccc2c2cc(Cl)cc(-c3cccnc3)c21` [Example 57, 6-Chloro-8-pyridin-3-yl-9-(2,2,2-trifluoro-ethyl)-9H-pyrido[3,4-b]indole]: the EC50 was 1600 nM and the Emax is less than 20%.

`CCn1c2c(-c3cccnc3Cl)cc(Cl)cc2c2ccnc(C)c21` [Example 58, 6-Chloro-8-(2-chloro-pyridin-3-yl)-9-ethyl-1-methyl-9H-pyrido[3,4-b]indole] displayed an EC50 of 1500 nM and an Emax of 20 to 50%.

In the case of `CCn1c2c(-c3ccc(Cl)nc3Cl)cc(Cl)cc2c2ccnc(C)c21` [Example 59, 6-Chloro-8-(2,6-dichloro-pyridin-3-yl)-9-ethyl-1-methyl-9H-pyrido[3,4-b]indole], the EC50 was 1300 nM and the Emax is greater than 80%.

As for `N#Cc1ccc(-c2cc(Cl)cc3c4ccncc4n(CC(F)(F)F)c23)cn1` [Example 60, 5-[6-Chloro-9-(2,2,2-trifluoro-ethyl)-9H-pyrido[3,4-b]indol-8-yl]-pyridine-2-carbonitrile], the EC50 worked out at 2500 nM and the Emax fell in the range of 20 to 50%.

Consider `FC(F)(F)Cn1c2cnccc2c2cc(Cl)cc(-c3cnc4ccccc4c3)c21` [Example 61, 6-Chloro-8-quinolin-3-yl-9-(2,2,2-trifluoro-ethyl)-9H-pyrido[3,4-b]indole], for which the EC50 stood at 5600 nM and the Emax is greater than 80%.

Molecule `COc1ccc(-c2cc(Cl)cc3c4ccncc4n(CC(F)(F)F)c23)cn1` [Example 62, 6-Chloro-8-(6-methoxy-pyridin-3-yl)-9-(2,2,2-trifluoro-ethyl)-9H-pyrido[3,4-b]indole] gave an EC50 of 1200 nM and an Emax greater than 80%.

`Fc1ccc(-c2cc(Cl)cc3c4ccncc4n(CC(F)(F)F)c23)c(F)n1` [Example 63, 6-Chloro-8-(2,6-difluoro-pyridin-3-yl)-9-(2,2,2-trifluoro-ethyl)-9H-pyrido[3,4-b]indole] registered an EC50 of 590 nM and an Emax of 20 to 50%.

As for `Cc1nccc2c1[nH]c1c(-c3ccc(Cl)nc3Cl)cc(Cl)cc12` [Example 64, 6-Chloro-8-(2,6-dichloro-pyridin-3-yl)-1-methyl-9H-pyrido[3,4-b]indole], the EC50 worked out at 3900 nM and the Emax was greater than 80%.

On to `Cc1nccc2c1[nH]c1c(-c3cccnc3)cc(Cl)cc12` [Example 65, 6-Chloro-1-methyl-8-pyridin-3-yl-9H-pyrido[3,4-b]indole], for which the EC50 was determined as 2300 nM and the Emax was in the range of 20 to 50%.

With `FC(F)(F)Cn1c2cnccc2c2cc(Cl)cc(-c3ccc(Cl)nc3)c21` [Example 66, 6-Chloro-8-(6-chloro-pyridin-3-yl)-9-(2,2,2-trifluoro-ethyl)-9H-pyrido[3,4-b]indole], the response was half-maximal at 2100 nM (EC50) and the Emax lay within 50 to 80%.

As to `CCn1c2cnccc2c2cc(Cl)cc(-c3ccc(C)nc3)c21` [Example 67, 6-Chloro-9-ethyl-8-(6-methyl-pyridin-3-yl)-9H-pyrido[3,4-b]indole], the response was half-maximal at 740 nM (EC50) and the Emax lay within 20 to 50%.

Regarding `Cc1ccc(-c2cc(Cl)cc3c4ccncc4n(CC(F)(F)F)c23)cn1` [Example 68, 6-Chloro-8-(6-methyl-pyridin-3-yl)-9-(2,2,2-trifluoro-ethyl)-9H-pyrido[3,4-b]indole], a half-maximal effect (EC50) was put at 7600 nM and the Emax lay within 50 to 80%.

Turning to `FC(F)(F)Cn1c2cnccc2c2cc(Cl)cc(-c3cnccc3Cl)c21` [Example 69, 6-Chloro-8-(4-chloro-pyridin-3-yl)-9-(2,2,2-trifluoro-ethyl)-9H-pyrido[3,4-b]indole], the EC50 worked out at 2000 nM and the Emax fell in the range of 50 to 80%.

`CCn1c2cnccc2c2cc(Cl)cc(-c3ccc(OC)nc3)c21` [Example 70, 6-Chloro-9-ethyl-8-(6-methoxy-pyridin-3-yl)-9H-pyrido[3,4-b]indole] displayed an EC50 of 570 nM and an Emax greater than 80%.

The record behind these values is patent publication US12275733B2, “Substituted pyrido[3,4-b]indoles for the treatment of cartilage disorders” (Sanofi, priority 2016, dated 2025).
